Entries after “also recorded” stand apart in the source; their conditions may differ. Read-outs that look alike come from different tables or passages of the source. Ends that are not written are not given here.
Assays:
S. aureus = conditions: cited from earlier work
Xylella fastidiosa cells [1] = assay type: cell-based
[2] = test system: Xylella fastidiosa biofilm; assay type: cell-based; conditions: 50 μM, 20 days, 28 °C
[3] = test system: Xylella fastidiosa subsp. pauca, strain De Donno; assay type: cell-based
Xylella fastidiosa cells [4] = assay type: cell-based; remark: listed apart in the source
[5] = test system: Xylella fastidiosa subsp. pauca, strain De Donno; assay type: cell-based; remark: listed apart in the source
E. coli = conditions: cited from earlier work
Xylella fastidiosa cells [6] = assay type: cell-based; remark: listed apart in the source
[7] = test system: Xanthomonas albilineans (Xa), strain CFBP2523; assay type: cell-based; set-up: key: +++: Clear plaque formation; ++: turbid plaque formation; +: highly turbid plaque formation; -: no plaque formation
[8] = test system: Xylella fastidiosa subsp. pauca isolate De Donno in Nicotiana tabacum (var. Xanthi); assay type: in vivo
Xf = conditions: 1 mg/mL; cited from earlier work
Xf strain 9a5c = conditions: cited from earlier work
X. fastidiosa = conditions: cited from earlier work
[9] = test system: Nicotiana tabacum cv. Xanthi leaves; conditions: in vivo

Molecule	MIC (μM) S. aureus (S. aureus) [µM]	morphological changes of Xf cells under TEM (Xylella fastidiosa cells [1])	effect on Xf biofilm formation (comparison, words) [2]	antimicrobial activity on Xf growth in antibiogram [3]	reductive activity against Xf cells (OD600, words) [5]	MIC (μM) E. coli (E. coli) [µM]	lytic activity by fluorescence microscopy (live green / dead red) (Xylella fastidiosa cells [6])	growth inhibition of Xanthomonas albilineans (plaque formation) [7]	other results
IKWKKLLRAAKRIL-NH2 [IL14, DASamP2, synthetic antimicrobial peptide, […]-NH2]	6.2	cytoplasmic condensation, loss of interior appearance, and alteration of the outer membrane	greater performance than KL29	particularly highly active	greatest activity	3.1	moderate lytic activity	+++	reduction in Xf cell viability (v-qPCR) (Xylella fastidiosa cells [4]): twofold reduction in cell viability
Lycotoxin I [IL25]	3.1					25		+++ and -	
CC(=O)N[C@@H](CS)C(=O)O [NAC, N-acetyl-L-cysteine]									morphological changes of Xf cells under TEM (Xylella fastidiosa cells [1]; 50 μM, 1 h, room temperature, Xf 10^8 CFU/mL): pore and protrusion formation and condensed cytoplasmic outflow from the outer membrane; Xf disease symptoms in Xf-infected tobacco plants ([8]; 30 dpi, 100 μL of treatment at inoculation point): did not develop any symptoms; Xf disease symptoms in Xf-infected tobacco leaf ([8]; 45 dpi, positive control treatment): no symptoms; activity against Xf (Xf): biocidal; effect on biofilm biomass of Xf strain 9a5c (Xf strain 9a5c): reducing the biofilm biomass
FFGKVLKLIRKIF-NH2 [FF13, DASamP1, synthetic antimicrobial peptide, …-NH2]	3.1	cytoplasmic condensation, loss of interior appearance, and alteration of the outer membrane	greater performance than KL29	particularly highly active	greatest activity	>100	moderate lytic activity	+++	reduction in Xf cell viability (v-qPCR) (Xylella fastidiosa cells [4]): twofold reduction in cell viability
VQFRIRVRIVIRK-NH2 [VK13, 1036, synthetic antimicrobial peptide, […]-NH2]								+++ and +	MIC (μM) X. fastidiosa (X. fastidiosa): 12.5 µM
GLLGLLGSVVSHVVPAIVGHF-NH2 [GF21, Maculatin 1.3, antimicrobial peptide, source frog]	6.2					>100		+++ and -	
FFHHIFRGIVHVGKTIHRLVTG [FG22, Piscidin 1, antimicrobial peptide, source fish]	3.1					12.5		+++ and -	
GFKDLLKGAAKALVKTVLF-NH2 [GF19, Ascaphin-8]	3.1	damaged and fragmented cell walls, with complete destruction of the outer and inner bacterial membranes	interfered with biofilm formation in the same manner as NAC; also recorded: greater performance than KL29	particularly highly active; also recorded: distinct inhibitory activity	greatest activity	12.5	highest lytic activities	+++	diameter of halo-shaped tissue dissolving in tobacco leaves [9]: 7 mm; hypersensitive reaction in tobacco leaves [9]: light hypersensitive reaction; reduction in viability of Xf compared to untreated cells (v-qPCR) (Xylella fastidiosa cells [4]): more-than-fourfold reduction in viability
RIVWVRIRRWFV-NH2 [RV12, RIJK2, synthetic antimicrobial peptide, …-NH2]								+++ and +	MIC (μM) X. fastidiosa (X. fastidiosa): 12.5 µM
